pIC50: −log10 of the molar value.
Target: GpIIb/IIIa receptor (Homo sapiens, UniProt P05106+P08514)
Assay: GpIIb/IIIa fibrinogen ELISA (inhibition of the fibrinogen-GpIIb/IIIa interaction)
Format: binding
Settings: isolated activated GpIIb/IIIa receptor coated at 2 μg/ml; fibrinogen ligand, 1 hour incubation; OD at 405 nm
Description: Microtitre plates were coated overnight with 2 μg/ml isolated activated GpIIb/IIIa receptor. After the unbound receptor had been removed by several washing steps, the surface of the plate was blocked with 1% casein and washed again. The test substance was added at the necessary concentrations, the plates were subsequently incubated for 10 minutes while shaking in a linear shaker. The natural ligand of the GpIIb/IIIa receptor fibrinogen was added thereto. After incubating for 1 hour, unbound fibrinogen was removed by several washing steps and bound fibrinogen was determined in an ELISA reader by determining the change in optical density at 405 nm caused by a peroxidase conjugated monoclonal antibody. Inhibition of the fibrinogen-GpIIb/IIIa interaction leads to low optical densities. The IC50 value was determined by means of a concentration-effect curve.
The GpIIb/IIIa fibrinogen ELISA is a modification of the assay which is described in the following references:
Nachman, R. L. & Leung, L. L. K. (1982): Complex formation of platelet membrane glycoproteins IIb and IIIa with fibrinogen. J. Clin. Invest. 69: 263-269.
Wright, P. S. et al. […]; An echistatin C-terminal peptide activated GpIIb/IIIa binding to fibrinogen, fibronectin, vitronectin and collagen type I and type IV. Biochem. J. 293: 262-267.

GpIIb/IIIa receptor, sequence (P08514 32-887 limits assumed): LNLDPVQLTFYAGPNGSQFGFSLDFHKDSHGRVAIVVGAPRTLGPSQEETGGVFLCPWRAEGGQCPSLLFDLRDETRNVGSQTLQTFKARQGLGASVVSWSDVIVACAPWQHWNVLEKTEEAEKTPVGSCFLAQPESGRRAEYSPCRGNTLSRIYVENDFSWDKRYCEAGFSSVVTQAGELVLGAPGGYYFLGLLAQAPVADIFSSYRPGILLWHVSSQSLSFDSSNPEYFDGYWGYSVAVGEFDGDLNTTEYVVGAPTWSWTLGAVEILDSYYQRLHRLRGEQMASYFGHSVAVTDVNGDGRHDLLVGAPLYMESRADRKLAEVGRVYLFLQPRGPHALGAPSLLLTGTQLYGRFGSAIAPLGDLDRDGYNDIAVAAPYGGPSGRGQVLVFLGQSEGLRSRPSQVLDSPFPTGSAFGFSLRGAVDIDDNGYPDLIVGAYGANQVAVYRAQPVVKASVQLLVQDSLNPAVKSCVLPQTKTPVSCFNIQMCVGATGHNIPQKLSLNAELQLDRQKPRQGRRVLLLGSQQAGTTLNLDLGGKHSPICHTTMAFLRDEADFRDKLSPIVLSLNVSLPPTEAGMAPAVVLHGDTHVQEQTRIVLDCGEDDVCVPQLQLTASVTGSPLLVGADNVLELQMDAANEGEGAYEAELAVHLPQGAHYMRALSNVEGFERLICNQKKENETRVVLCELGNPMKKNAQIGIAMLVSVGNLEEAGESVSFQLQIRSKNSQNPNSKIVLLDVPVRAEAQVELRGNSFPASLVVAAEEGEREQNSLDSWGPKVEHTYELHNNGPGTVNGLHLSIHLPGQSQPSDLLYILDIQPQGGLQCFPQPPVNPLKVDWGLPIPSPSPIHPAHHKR
GpIIb/IIIa receptor, sequence (P08514 891-1039 partner limits assumed): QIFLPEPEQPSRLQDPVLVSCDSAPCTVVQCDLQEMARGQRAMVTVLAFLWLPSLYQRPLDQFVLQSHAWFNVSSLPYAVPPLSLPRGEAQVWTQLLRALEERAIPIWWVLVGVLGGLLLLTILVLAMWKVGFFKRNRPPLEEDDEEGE
GpIIb/IIIa receptor, sequence (P05106 27-788): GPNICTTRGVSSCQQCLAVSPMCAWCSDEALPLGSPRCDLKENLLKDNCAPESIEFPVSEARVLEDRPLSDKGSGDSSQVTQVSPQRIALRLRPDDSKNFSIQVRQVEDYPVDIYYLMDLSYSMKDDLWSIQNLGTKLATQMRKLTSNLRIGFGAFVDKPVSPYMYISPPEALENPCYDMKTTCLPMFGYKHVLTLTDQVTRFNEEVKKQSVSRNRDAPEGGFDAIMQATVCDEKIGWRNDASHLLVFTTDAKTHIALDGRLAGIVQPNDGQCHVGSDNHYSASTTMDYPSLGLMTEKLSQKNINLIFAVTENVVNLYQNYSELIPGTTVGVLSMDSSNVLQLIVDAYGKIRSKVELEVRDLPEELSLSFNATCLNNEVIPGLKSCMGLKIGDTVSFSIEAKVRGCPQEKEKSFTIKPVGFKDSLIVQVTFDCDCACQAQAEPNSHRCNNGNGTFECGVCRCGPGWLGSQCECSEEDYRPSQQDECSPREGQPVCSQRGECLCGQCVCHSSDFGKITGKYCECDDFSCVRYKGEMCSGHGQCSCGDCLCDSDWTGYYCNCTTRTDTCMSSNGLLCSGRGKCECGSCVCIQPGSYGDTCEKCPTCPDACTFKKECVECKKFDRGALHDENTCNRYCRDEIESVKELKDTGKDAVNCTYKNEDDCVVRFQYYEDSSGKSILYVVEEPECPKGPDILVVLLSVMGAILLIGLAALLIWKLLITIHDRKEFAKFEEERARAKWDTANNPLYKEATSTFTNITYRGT

SMILES | pIC50
O=C(O)C=C1CCN(CC2CN(C3CCN(c4ccncc4)CC3)C(=O)O2)CC1 (racemic) [Example 3, {1-[(rac)-2-Oxo-3-(3,4,5,6-tetrahydro-2H-[1,4']bipyridinyl-4yl)-oxazolidin-5-ylmethyl]-piperidin-4-ylidene}-acetic acid] | 5.85
O=C(O)C1CCN(CC2OC(=O)N(C3CCN(c4ccncc4)CC3)C2c2ccccc2)CC1 (stereo not drawn) [10 a)] | 6.52
O=C(O)CC1(O)CCN(CC2CN(C3CCN(c4ccncc4)CC3)C(=O)O2)CC1 (stereo not drawn) [Example 5, {4-Hydroxy-1-[2-oxo-3-(3,4,5,6-tetrahydro-2H-[1,4']bipyridinyl-4-yl)-oxazolidin-5-ylmethyl]-piperidin-4-yl}acetic acid] | 6.00
CC1C(CN2CCC(C(=O)O)CC2)OC(=O)N1C1CCN(c2ccncc2)CC1 (stereo not drawn) [Example 7, 1-[4-Methyl-2-oxo-3-(3,4,5,6-tetrahydro-2H-[1,4']bipyridinyl-4-yl)-oxazolidin-5-ylmethyl]-piperidine-4-carboxylic acid] | > 6.52
O=C(O)C1CCN(CC2CN(C3CCN(c4ccncn4)CC3)C(=O)O2)CC1 (stereo not drawn) [Example 8, 1-[2-Oxo-3-(1-pyrimidin-4-yl-piperidin-4-yl)-oxazolidin-5-ylmethyl]-piperidine-4-carboxylic acid] | 6.52
C[C@]1(CN2CCC(C(=O)O)CC2)CN(C2CCN(c3ccncc3)CC2)C(=O)O1 [No. 78, (5S)-1-[5-Methyl-2-oxo-3-(3,4,5,6-tetrahydro-2H-[1,4']bipyridinyl-4-yl)-oxazolidin-5-ylmethyl]-piperidine-4-carboxylic acid] | 6.22
O=C(O)C1CCN(CC2OC(=O)N(C3CCN(c4ccncc4)CC3)C2c2cccc(C(F)(F)F)c2)CC1 (stereo not drawn) [No. 79, 1-[2-Oxo-3-(3,4,5,6-tetrahydro-2H-[1,4']bipyridinyl-4-yl)-4-(3-trifluoromethylphenyl)-oxazolidin-5-ylmethyl]-piperidine-4-carboxylic acid] | 5.89
O=C(O)C1CCN(CC2OC(=O)N(C3CCN(c4ccncc4)CC3)C2c2ccc(Cl)cc2)CC1 (stereo not drawn) [No. 80, 1-[4-(4-Chlorophenyl)-2-oxo-3-(3,4,5,6-tetrahydro-2H-[1,4']bipyridinyl-4-yl)-oxazolidin-5-ylmethyl]-piperidine-4-carboxylic acid] | 6.30

The remaining lines, values ahead:

pIC50 | SMILES
> 6.52 | O=C(O)C1CCN(CC2CN(C3CCN(c4ccncc4)CC3)C(=O)O2)CC1 (racemic) [Example 2, 1-[(rac]-2-Oxo-3-(3,4,5,6-tetrahydro-2H-[1,4']bipyridinyl-4-yl)-oxazolidin-5-ylmethyl]-piperidine-4-carboxylic acid]
> 6.52 | O=C(O)C1CCC(O)(CC2CN(C3CCN(c4ccncc4)CC3)C(=O)O2)CC1 (stereo not drawn) [10 c)]
> 6.52 | O=C(O)C1CCN(C[C@H]2CN(C3CCN(c4ccncc4)CC3)C(=O)O2)CC1 [Example 1, 1-[(5S)-2-oxo-3-(3,4,5,6-tetrahydro-2H-[1,4']bipyridinyl-4-yl)-oxazolidin-5-ylmethyl]-piperidine-4-carboxylic acid]
7.15 | O=C(O)C1CCN(CC2CN(C3CCN(c4ccnc(NCc5ccccc5)n4)CC3)C(=O)O2)CC1 (stereo not drawn) [Example 9, 1-{3-[1-(2-Benzylamino-pyrimidin-4-yl)-piperidin-4-yl]-2-oxo-oxazolidin-5-ylmethyl}-piperidine-4-carboxylic acid]

From patent US5972947A, “Oxazolidinone derivatives, processes for the production thereof and pharmaceutical agents containing these compounds” (Roche Diagnostics GmbH, priority 1995, dated 1999)
